Assay results as given in patent publication US5859061A, “Bis-sulfonamides hydroxamic acids as MMP inhibitors” (Pharmacia & Upjohn Company, priority 1998, dated 1999).

What was measured:
Type in all cases: biochemical
Conditions in all cases: in vitro, pH 7.5, room temperature, 15 min preincubation, substrate 1-3 hours
collagenase = assay: particle concentration fluorescence assay, inhibition of collagenase
Description: (§1) Inhibitory activity is evaluated in one or more of the MMP enzymes (stromelysin, gelatinase, and collagenase) in vitro using particle concentration fluorescence assay. An inhibitor binds to MMP enzymes which prevents the degradation of a substrate by stromelysin, gelatinase, or collagenase. The substrate has attached to it a fluorescein and a biotin moiety. The intact substrate then binds to an avidin-coated particle via the biotin moiety. Once the particle is washed and dried, a fluorescent signal is generated since the fluorescent group is attached to the particle. Without an inhibitor present, the substrate is degraded by MMP enzymes and the fluorescein group is removed, therefore, no fluorescent signal can be detected. Testing compounds are dissolved in DMSO to the desired concentration, then the solutions are diluted to 1:5 with MMP buffer (50 mM Tris-HCl, pH 7.5; 150 mM NaCl; 0.02% NaN3). Serial two-fold dilutions of each compound are prepared. A concentrated, activated enzyme solution is transferred into each plate of the testing compounds, and the mixture is incubated at room temperature for 15 minutes. Thawed MMP substrate is then added into all plates, and the plates are incubated in the dark for 1-3 hours at room temperature. At this point, the substrate mixture is mixed with 0.1% avidin-coated polystyrene particles. After 15 minutes, the fluorescence values are measured following filtration and washing of the beads. Ki values are then calculated.

stromelysin = stromelysin (Homo sapiens, UniProt P08254); assay: particle concentration fluorescence assay, inhibition of stromelysin
stromelysin, sequence (P08254 100-477): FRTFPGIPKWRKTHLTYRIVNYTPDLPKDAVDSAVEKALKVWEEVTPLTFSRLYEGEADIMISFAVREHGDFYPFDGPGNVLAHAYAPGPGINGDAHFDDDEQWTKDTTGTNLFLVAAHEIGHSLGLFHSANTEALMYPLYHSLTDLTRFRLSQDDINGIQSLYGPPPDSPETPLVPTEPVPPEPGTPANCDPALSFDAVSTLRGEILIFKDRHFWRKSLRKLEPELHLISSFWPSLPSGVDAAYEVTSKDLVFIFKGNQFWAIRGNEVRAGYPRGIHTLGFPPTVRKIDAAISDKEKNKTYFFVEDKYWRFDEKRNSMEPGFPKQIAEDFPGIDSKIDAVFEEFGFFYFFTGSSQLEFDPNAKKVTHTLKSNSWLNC
Description: as §1

gelatinase = assay: particle concentration fluorescence assay, inhibition of gelatinase
Description: as §1

Row | SMILES | Ki (collagenase) [nM] | Ki (stromelysin) [nM] | Ki (gelatinase) [nM]
1 | Cc1ccc(S(=O)(=O)NCCC(NS(=O)(=O)c2ccc(C)cc2)C(=O)NO)cc1 (stereo not drawn) [Example 1, N-Hydroxy-2,4-bis-[[4-methylphenylsulfonyl]amino] butanamide] | 48 | 2.4 | 0.94
2 | Cc1ccc(S(=O)(=O)NCC[C@@H](NS(=O)(=O)c2ccc(C)cc2)C(=O)NO)cc1 [Example 2, (R)-N-Hydroxy-2,4-bis-[[4-methylphenylsulfonyl]amino] butanamide] | 43 | 3.2 | 1.3
3 | Cc1ccc(S(=O)(=O)NCC[C@H](NS(=O)(=O)c2ccc(C)cc2)C(=O)NO)cc1 [Example 3, (S)-N-Hydroxy-2,4-bis-[[4-methylphenylsulfonyl]amino] butanamide] | 840 | 48 | 35
4 | Cc1ccc(S(=O)(=O)NCC(NS(=O)(=O)c2ccc(C)cc2)C(=O)NO)cc1 (stereo not drawn) [Example 4, N-Hydroxy-2,3-bis-[[4-methylphenylsulfonyl]amino] propionamide] | 449 | 844 | 20
5 | O=C(NO)C(CCNS(=O)(=O)c1ccc(F)cc1)NS(=O)(=O)c1ccc(F)cc1 (stereo not drawn) [Example 5, N-Hydroxy-2,4-bis-[[4-fluorophenylsulfonyl]amino] butanamide] | 60 | 45 | 16
6 | O=C(NO)[C@H](CCNS(=O)(=O)c1ccccc1)NS(=O)(=O)c1ccccc1 [Example 6, (S)-N-Hydroxy-2,4-bis-[[phenylsulfonyl]amino] butanamide] | 3000 | 2000 | 284
7 | Cc1ccc(S(=O)(=O)NCCCC(NS(=O)(=O)c2ccc(C)cc2)C(=O)NO)cc1 (stereo not drawn) [Example 7, N-Hydroxy-2,5-bis-[[4-methylphenylsulfonyl]amino] valeramide] | 570 | 107 | 5.1
8 | COc1ccc(S(=O)(=O)NCCC(NS(=O)(=O)c2ccc(OC)cc2)C(=O)NO)cc1 (stereo not drawn) [Example 8, N-Hydroxy-2,4-bis-[[4-methoxyphenylsulfonyl]amino] butanamide] | 93 | 1.2 | 0.7
